Where two headings read alike, the source gives them in different places.
Target: T1, ferroportin (Fpn) (Mus musculus, UniProt Q9JHI9)
T1 construct: host or cells: J774 mouse macrophage cell line, Fe(III)-NTA induced
T1 sequence (Q9JHI9 1-570): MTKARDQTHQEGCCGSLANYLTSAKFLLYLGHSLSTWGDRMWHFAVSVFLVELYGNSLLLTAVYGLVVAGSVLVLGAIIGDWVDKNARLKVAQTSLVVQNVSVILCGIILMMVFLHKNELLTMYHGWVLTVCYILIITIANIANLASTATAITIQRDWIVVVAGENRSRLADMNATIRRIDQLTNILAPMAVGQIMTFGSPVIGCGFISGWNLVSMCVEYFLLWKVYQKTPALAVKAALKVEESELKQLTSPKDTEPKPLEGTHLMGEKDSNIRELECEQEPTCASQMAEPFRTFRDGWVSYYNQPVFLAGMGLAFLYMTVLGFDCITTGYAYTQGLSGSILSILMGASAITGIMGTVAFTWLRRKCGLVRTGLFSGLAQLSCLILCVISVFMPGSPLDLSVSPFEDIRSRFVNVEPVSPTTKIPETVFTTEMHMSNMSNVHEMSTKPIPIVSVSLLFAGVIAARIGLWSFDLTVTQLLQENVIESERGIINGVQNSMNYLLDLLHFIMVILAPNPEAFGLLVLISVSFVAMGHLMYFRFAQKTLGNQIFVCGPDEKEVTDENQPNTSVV
Assay: Hepcidin Internalization Assay (J774)
Format: cell-based
Procedure, shortened: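 Inhibition of fluorescent TMR-hepcidin uptake via ferroportin was imaged in fixed J774 cells after a 2 h, 37 °C co-incubation with compound dilutions; cells were pre-cultured overnight with 200 μM Fe(III)NTA. Internalized TMR signal per cell (Sum(Mean)) was fitted as log(inhibitor) vs. response for IC50, in triplicate.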

[1] = average of multiple measurements, inhibition of TMR-hepcidin (25 nM) internalization into J774 cells, read-out: J774 IC50

| Compound | IC50 [1] | IC50 (IC50 of unlabeled hepcidin in the hepcidin internalization assay, J774 cells, TMR-hepcidin 25 nM) |
| --- | --- | --- |
| O=C(NCc1ncccc1F)c1cnn(CCNCCc2nc3ccccc3[nH]2)c1 [Example 111] | 35 nM |  |
| O=C(NCc1ncccc1F)c1csc(CCNCCc2nc3cc(F)ccc3[nH]2)n1 [Example 120] | 34 nM |  |
| O=C(NCc1ccccn1)c1csc(CCNCc2nc3ccccc3[nH]2)n1 [Example 12] | 80 nM |  |
| O=C(NCc1ncccc1F)c1coc(CCNCCc2nc3cc(F)ccc3[nH]2)n1 [Example 250] | 14 nM |  |
| O=C(NCc1ncccc1F)c1csc(CCN(CCc2nc3ccccc3[nH]2)CCc2nc3ccccc3[nH]2)n1 [Example 152] | 4 nM |  |
| O=C(NCc1ncccc1F)c1csc(CNCCc2nc3ccccc3[nH]2)n1 [Example 118] | 103 nM |  |
| O=C(NCc1ccccn1)c1coc(CCNCc2nc3ccccc3[nH]2)n1 [Example 137] | 514 nM |  |
| O=C(NCc1ncccc1F)c1ncn(CCNCc2nc3ccccc3[nH]2)n1 [Example 169] | 750 nM |  |
| O=C(NCc1cccnn1)c1nc(CCNCc2nc3ccccc3[nH]2)sc1Cl [Example 161] | 361 nM |  |
| CC[C@H](C)[C@@H]1NC(=O)[C@@H](NC(=O)[C@@H](NC(=O)[C@@H]2CCCN2C(=O)[C@H](Cc2ccccc2)NC(=O)[C@H](Cc2c[nH]cn2)NC(=O)[C@@H](NC(=O)[C@@H](N)CC(=O)O)[C@@H](C)O)[C@@H](C)CC)CSSC[C@@H](C(=O)N[C@@H](CCCCN)C(=O)N[C@H](C(=O)O)[C@@H](C)O)NC(=O)[C@@H]2CSSC[C@@H]3NC(=O)[C@@H]4CSSC[C@H](NC(=O)[C@H](Cc5ccccc5)NC1=O)C(=O)N[C@@H](CSSC[C@H](NC(=O)[C@H](CCCCN)NC(=O)[C@H](CO)NC(=O)[C@H](CCCNC(=N)N)NC(=O)[C@H](Cc1c[nH]cn1)NC3=O)C(=O)NCC(=O)N[C@@H](CCSC)C(=O)N2)C(=O)NCC(=O)N4 [hepcidin, reference compound] |  | 15 ± 11 nM |
| O=C(NCc1ncccc1F)c1coc(CCNCCc2nc3c(F)cc(F)cc3[nH]2)n1 [Example 249] | 40 nM |  |
| O=C(NCc1ncccc1Cl)c1csc(CCNCc2nc3ccccc3[nH]2)n1 [Example 82] | 6 nM |  |
| O=C(NC1CCc2cccnc21)c1csc(CCNCCc2nc3ccccc3[nH]2)n1 (stereo not drawn) [Example 158] | 47 nM |  |
| O=C(NCc1cccnn1)c1csc(CCNCCc2nc3ccccc3[nH]2)n1 [Example 122] | 26 nM |  |
| O=C(NC1CCc2cccnc21)c1csc(CCNCc2nc3ccccc3[nH]2)n1 (stereo not drawn) [Example 39] | 70 nM |  |
| O=C(NCc1ncccc1F)c1nc(CCNCCc2nc3ccccc3[nH]2)sc1Cl [Example 154] | 8.3 nM |  |
| O=C(NCc1ncccc1F)c1coc(CCNCc2nc3ccccc3[nH]2)n1 [Example 126] | 96 nM |  |
| O=C(NCc1ncc(F)cc1F)c1csc(CCNCCc2nc3ccccc3[nH]2)n1 [Example 116] | 1000 nM |  |

| Compound | IC50 [1] | IC50 (IC50 of unlabeled hepcidin in the hepcidin internalization assay, J774 cells, TMR-hepcidin 25 nM) |
| --- | --- | --- |
| O=C(NCc1ncccc1F)c1coc(C2CN(CCc3nc4ccccc4[nH]3)C2)n1 [Example 208] | 12 nM |  |
| O=C(NCc1ncccc1F)c1nc(CCNCc2nc3ccccc3[nH]2)sc1Cl [Example 151] | 111 nM |  |
| O=C(NCc1ncccc1F)c1csc(CCCNCc2nc3ccccc3[nH]2)n1 [Example 134] | 377 nM |  |
| O=C(NCc1ncccc1Cl)c1cnn(CCNCc2nc3ccccc3[nH]2)c1 [Example 138] | 179 nM |  |
| O=C(NCc1ncccc1F)c1cncc(C2CN(CCc3nc4ccccc4[nH]3)C2)c1 [compound 237] | 81 nM |  |
| O=C(NCc1ncccc1Cl)c1coc(CCNCc2nc3ccccc3[nH]2)n1 [Example 141] | 167 nM |  |
| O=C(NCc1ncccc1F)c1ncn(CCNCCc2nc3ccccc3[nH]2)n1 [Example 181] | 135 nM |  |
| O=C(NCc1ncccc1F)c1csc(CCNCCc2nc3c(F)cccc3[nH]2)n1 [Example 243] | 32 nM |  |
| O=C(NCc1ncccc1F)c1coc(CCNCCc2nc3c(F)cccc3[nH]2)n1 [Example 228] | 46 nM |  |
| O=C(NCc1ncccc1F)c1coc(CCNCCc2nc3ccccc3[nH]2)n1 [Example 127] | 9 nM |  |
| O=C(NCc1ncccc1F)c1cccc(CNCCc2nc3ccccc3[nH]2)c1 [Example 224] | 140 nM |  |
| O=C(NCc1ncccc1F)c1csc(CCNCC(F)(F)c2nc3ccccc3[nH]2)n1 [Example 196] | 1130 nM |  |
| Cc1oc(CCNCCc2nc3ccccc3[nH]2)nc1C(=O)NCc1ncccc1F [Example 230] | 140 nM |  |
| O=C(NCc1ncccc1F)c1coc(C2CN(CCc3nc4c(F)cccc4[nH]3)C2)n1 [Example 239] | 36 nM |  |
| O=C(NCc1ncccc1Cl)c1cnn(CCNCCc2nc3ccccc3[nH]2)c1 [Example 144] | 12 nM |  |
| Cc1cnccc1CNC(=O)c1csc(CCNCc2nc3ccccc3[nH]2)n1 [Example 90] | 25 nM |  |
| O=C(NCc1ncccc1F)c1csc(CCNCCc2nc3ccccc3[nH]2)n1 [Example 94] | 12 nM |  |
| O=C(NCc1ncccc1F)c1coc(CCNCCc2nc3c(Cl)cccc3[nH]2)n1 [Example 226] | 49 nM |  |

From US10738041B2, “Ferroportin inhibitors” (Vifor (International) AG, priority 2015, dated 2020)
